# Results taken from patent publication US11390624B2, “Pyrazolopyridines and triazolopyridines as A2A / A2B inhibitors” (Incyte Corporation, priority 2019, dated 2022).
# Key:
# [1] = target: Adenosine A2A receptor (Tag-lite Adenosine A2A labeled cells) (Homo sapiens (Human), UniProt P29274); assay: A2A Tag-lite HTRF Assay; format: binding; details: displacement of Adenosine A2A Receptor Red antagonist fluorescent ligand, 12.5 nM
# Excerpt: The final concentration of DMSO was 1%.
# [2] = target: human adenosine A2B receptor (Homo sapiens (Human), UniProt P29275); assay: Adenosine A2B Receptor Cyclic AMP GS Assay; format: cell-based; details: HEK-293 cells, agonist NECA at 12 nM, cAMP accumulation; read-out: A2B—cAMP_EC50
# Sequence of human adenosine A2B receptor (P29275 whole entry): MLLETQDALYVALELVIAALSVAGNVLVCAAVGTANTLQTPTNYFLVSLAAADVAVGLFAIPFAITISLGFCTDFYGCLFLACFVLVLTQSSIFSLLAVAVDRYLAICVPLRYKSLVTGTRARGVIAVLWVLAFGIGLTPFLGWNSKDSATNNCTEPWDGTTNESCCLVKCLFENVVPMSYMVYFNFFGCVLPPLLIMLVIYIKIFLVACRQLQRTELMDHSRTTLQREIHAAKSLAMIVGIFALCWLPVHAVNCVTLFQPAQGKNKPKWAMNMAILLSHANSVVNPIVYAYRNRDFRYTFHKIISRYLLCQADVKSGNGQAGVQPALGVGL
# Method: Stably transfected HEK-293 cells expressing the human adenosine A2B receptor (Perkin Elmer) were maintained in MEM culture medium with 10% FBS and 100 μg/mL Geneticin (Life Technologies). 18 to 24 hours prior to assay, geneticin was removed from culture. The cisbio cAMP-GS Dynamic kit utilizing the FRET (Fluorescence Resonance Energy Transfer) technology was used to measure cAMP accumulation in the cells. Compounds of the present disclosure at an appropriate concentration were mixed with 10000 cells/well in white 96 well half area plates (Perkin Elmer) for 30 min at room temperature gently shaking. Agonist, NECA (R&D Technologies) at 12 nM was added to each well for 60 min at room temperature gently shaking. Detection reagents, d2-labeled cAMP (acceptor) and anti-cAMP cryptate (donor) were added to each well for 60 min at RT gently shaking. Plates were read on Pherastar (BMG Labtech), fluorescence ratio 665/620 was calculated and EC50 determination was performed by fitting the curve of percent of control versus the log of the compound concentration using GraphPad Prism.
# Sequence of Adenosine A2A receptor (Tag-lite Adenosine A2A labeled cells) (P29274 whole entry): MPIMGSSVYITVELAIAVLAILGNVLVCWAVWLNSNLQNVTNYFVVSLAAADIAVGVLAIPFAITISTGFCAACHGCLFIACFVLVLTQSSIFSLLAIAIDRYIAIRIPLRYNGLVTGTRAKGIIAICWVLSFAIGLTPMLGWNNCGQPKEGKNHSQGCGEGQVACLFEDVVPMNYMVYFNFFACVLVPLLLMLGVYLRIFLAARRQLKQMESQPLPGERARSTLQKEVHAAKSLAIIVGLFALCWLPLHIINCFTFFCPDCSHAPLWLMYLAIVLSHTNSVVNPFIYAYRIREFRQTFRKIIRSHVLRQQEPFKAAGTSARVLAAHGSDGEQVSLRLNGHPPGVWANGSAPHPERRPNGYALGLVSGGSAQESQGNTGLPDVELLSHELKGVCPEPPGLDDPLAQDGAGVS
Compound,Ki [1] [nM],EC50 [2] [nM]
"Cc1cccc(Cn2nc3c(N)nc(-c4cccc(C#N)c4)c(-c4ccc(=O)n(C)c4)c3n2)n1 [Example 27, 3-(4-amino-7-(1-methyl-6-oxo-1,6-dihydropyridin-3-yl)-2-((6-methylpyridin-2-yl)methyl)-2H-[1,2,3]triazolo[4,5-c]pyridin-6-yl)benzonitrile]",≤ 10,10 to 100
"CCn1nccc1-c1c(-c2cccc(C#N)c2)nc(N)c2nn(Cc3cccc(C)n3)nc12 [Example 28, 3-(4-amino-7-(1-ethyl-1H-pyrazol-5-yl)-2-((6-methylpyridin-2-yl)methyl)-2H-[1,2,3]triazolo[4,5-c]pyridin-6-yl)benzonitrile]",≤ 10,≤ 10
"Cc1cccc(Cn2nc3c(N)nc(-c4cccc(C#N)c4)c(-c4ocnc4C)c3n2)n1 [Example 29, 3-(4-amino-7-(4-methyloxazol-5-yl)-2-((6-methylpyridin-2-yl)methyl)-2H-[1,2,3]triazolo[4,5-c]pyridin-6-yl)benzonitrile]",≤ 10,≤ 10
"N#Cc1cccc(-c2nc(N)c3nn(Cc4ncccc4F)nc3c2-c2ccncn2)c1 [Example 30, 3-(4-amino-2-((3-fluoropyridin-2-yl)methyl)-7-(pyrimidin-4-yl)-2H-[1,2,3]triazolo[4,5-c]pyridin-6-yl)benzonitrile]",≤ 10,≤ 10
"N#Cc1cccc(-c2nc(N)c3nn(Cc4ncccc4F)nc3c2-c2ccncc2)c1 [Example 31, 3-(4-amino-2-((3-fluoropyridin-2-yl)methyl)-7-(pyridin-4-yl)-2H-[1,2,3]triazolo[4,5-c]pyridin-6-yl)benzonitrile]",≤ 10,≤ 10
"Cn1cc(-c2c(-c3cccc(C#N)c3)nc(N)c3nn(Cc4ncccc4F)nc23)ccc1=O [Example 32, 3-(4-amino-2-((3-fluoropyridin-2-yl)methyl)-7-(1-methyl-6-oxo-1,6-dihydropyridin-3-yl)-2H-[1,2,3]triazolo[4,5-c]pyridin-6-yl)benzonitrile]",≤ 10,10 to 100
"CCn1nccc1-c1c(-c2cccc(C#N)c2)nc(N)c2nn(Cc3ncccc3F)nc12 [Example 33, 3-(4-amino-7-(1-ethyl-1H-pyrazol-5-yl)-2-((3-fluoropyridin-2-yl)methyl)-2H-[1,2,3]triazolo[4,5-c]pyridin-6-yl)benzonitrile]",≤ 10,≤ 10
"CC(C)n1nccc1-c1c(-c2cccc(C#N)c2)nc(N)c2nn(Cc3ncccc3F)nc12 [Example 34, 3-(4-amino-2-((3-fluoropyridin-2-yl)methyl)-7-(1-isopropyl-1H-pyrazol-5-yl)-2H-[1,2,3]triazolo[4,5-c]pyridin-6-yl)benzonitrile]",≤ 10,≤ 10
"Cn1nccc1-c1c(-c2cccc(C#N)c2)nc(N)c2nn(Cc3ncccc3F)nc12 [Example 35, 3-(4-amino-2-((3-fluoropyridin-2-yl)methyl)-7-(1-methyl-1H-pyrazol-5-yl)-2H-[1,2,3]triazolo[4,5-c]pyridin-6-yl)benzonitrile]",≤ 10,≤ 10
"Cc1ncoc1-c1c(-c2cccc(C#N)c2)nc(N)c2nn(Cc3ncccc3F)nc12 [Example 36, 3-(4-amino-2-((3-fluoropyridin-2-yl)methyl)-7-(4-methyloxazol-5-yl)-2H-[1,2,3]triazolo[4,5-c]pyridin-6-yl)benzonitrile]",≤ 10,≤ 10
"N#Cc1cccc(-c2nc(N)c3nn(Cc4ncccc4F)nc3c2-c2ccc3nccnc3c2)c1 [Example 37, 3-(4-amino-2-((3-fluoropyridin-2-yl)methyl)-7-(quinoxalin-6-yl)-2H-[1,2,3]triazolo[4,5-c]pyridin-6-yl)benzonitrile]",≤ 10,10 to 100
"CCn1nccc1-c1c(-c2cccc(C#N)c2F)nc(N)c2nn(Cc3ccccn3)nc12 [Example 38, 3-(4-amino-7-(1-ethyl-1H-pyrazol-5-yl)-2-(pyridin-2-ylmethyl)-2H-[1,2,3]triazolo[4,5-c]pyridin-6-yl)-2-fluorobenzonitrile]",≤ 10,≤ 10
